From the NIST ThermoML archive (doi:10.1016/j.jct.2019.05.009)
Numbers after ± are expanded uncertainties.

Test: molar heat capacity at constant pressure
Conditions: 101.33 kPa, Crystal, relaxation calorimetry

[Al] [aluminum]
Conditions | molar heat capacity at constant pressure [J/K/mol]
1.863 K | 0.002602 ± 0.00014
1.936 K | 0.002749 ± 0.00015
2.01 K | 0.002882 ± 0.00015
2.089 K | 0.002997 ± 0.00016
2.173 K | 0.003177 ± 0.00017
2.264 K | 0.003323 ± 0.00018
2.36 K | 0.003531 ± 0.00019
2.459 K | 0.003773 ± 0.0002
2.562 K | 0.003901 ± 0.00021
2.677 K | 0.00413 ± 0.00022
2.795 K | 0.004373 ± 0.00023
2.915 K | 0.004596 ± 0.00025
3.042 K | 0.004765 ± 0.00025
3.177 K | 0.005056 ± 0.00027
3.318 K | 0.005413 ± 0.00029
3.464 K | 0.005679 ± 0.0003
3.615 K | 0.005941 ± 0.00032
3.776 K | 0.006361 ± 0.00034
3.943 K | 0.00681 ± 0.00036
4.119 K | 0.007189 ± 0.00038
4.301 K | 0.007838 ± 0.00042
4.492 K | 0.008275 ± 0.00044
4.687 K | 0.008914 ± 0.00048
4.896 K | 0.009549 ± 0.00051
5.111 K | 0.01026 ± 0.00055
5.34 K | 0.01095 ± 0.00059
5.574 K | 0.01158 ± 0.00062
5.822 K | 0.01268 ± 0.00068
6.08 K | 0.01359 ± 0.00073
6.349 K | 0.01458 ± 0.00078
6.636 K | 0.01573 ± 0.00084
6.925 K | 0.01714 ± 0.00092
7.23 K | 0.01866 ± 0.001
7.547 K | 0.02044 ± 0.0011
7.883 K | 0.02258 ± 0.0012
8.234 K | 0.02467 ± 0.0013
8.595 K | 0.02641 ± 0.0014
8.981 K | 0.02942 ± 0.0016
9.378 K | 0.03231 ± 0.0017
9.795 K | 0.03497 ± 0.0019
10.24 K | 0.03897 ± 0.0016
10.71 K | 0.04317 ± 0.0018
11.19 K | 0.04767 ± 0.0019
11.69 K | 0.05284 ± 0.0021
12.21 K | 0.05868 ± 0.0024
12.75 K | 0.06538 ± 0.0027
13.31 K | 0.07304 ± 0.003
13.9 K | 0.08149 ± 0.0033
14.52 K | 0.09112 ± 0.0037
15.16 K | 0.1021 ± 0.0042
15.66 K | 0.1115 ± 0.0045
17.12 K | 0.1425 ± 0.0058
18.7 K | 0.1842 ± 0.0075
20.44 K | 0.24 ± 0.0098
22.34 K | 0.317 ± 0.013
24.42 K | 0.423 ± 0.017
26.67 K | 0.5669 ± 0.023
29.14 K | 0.7607 ± 0.031
31.85 K | 1.02 ± 0.041
34.81 K | 1.356 ± 0.055
38.05 K | 1.784 ± 0.072
41.58 K | 2.319 ± 0.094
45.44 K | 2.967 ± 0.12
49.66 K | 3.728 ± 0.15
54.27 K | 4.615 ± 0.19
59.31 K | 5.613 ± 0.23
64.81 K | 6.718 ± 0.27
70.81 K | 7.909 ± 0.32
77.38 K | 9.17 ± 0.37
84.53 K | 10.51 ± 0.43
92.37 K | 11.83 ± 0.48
100.93 K | 13.12 ± 0.53
111.01 K | 14.49 ± 0.59
121.1 K | 15.74 ± 0.64
131.22 K | 16.79 ± 0.68
141.3 K | 17.72 ± 0.72
151.36 K | 18.54 ± 0.75
161.49 K | 19.25 ± 0.78
171.61 K | 19.88 ± 0.81
181.69 K | 20.47 ± 0.83
191.79 K | 21.01 ± 0.85
201.89 K | 21.48 ± 0.87
211.98 K | 21.89 ± 0.89
222.08 K | 22.24 ± 0.9
232.18 K | 22.58 ± 0.92
242.28 K | 22.91 ± 0.93
252.36 K | 23.16 ± 0.94
262.46 K | 23.41 ± 0.95
272.56 K | 23.64 ± 0.96
282.64 K | 23.88 ± 0.97
292.73 K | 24.08 ± 0.98
302.81 K | 24.25 ± 0.98

O=C(O)c1ccccc1 [benzoic acid]
Conditions | molar heat capacity at constant pressure [J/K/mol]
1.855 K | 0.01205 ± 0.0013
1.92 K | 0.01371 ± 0.0015
1.999 K | 0.01544 ± 0.0017
2.082 K | 0.0168 ± 0.0018
2.168 K | 0.01932 ± 0.0021
2.26 K | 0.02218 ± 0.0024
2.357 K | 0.02464 ± 0.0026
2.464 K | 0.0282 ± 0.003
2.568 K | 0.03421 ± 0.0036
2.679 K | 0.03716 ± 0.004
2.796 K | 0.04141 ± 0.0044
2.918 K | 0.04667 ± 0.005
3.044 K | 0.04829 ± 0.0051
3.179 K | 0.0605 ± 0.0064
3.32 K | 0.07095 ± 0.0075
3.465 K | 0.07898 ± 0.0084
3.617 K | 0.08814 ± 0.0094
3.776 K | 0.103 ± 0.011
3.942 K | 0.1157 ± 0.012
4.118 K | 0.1296 ± 0.014
4.303 K | 0.1534 ± 0.016
4.491 K | 0.172 ± 0.018
4.686 K | 0.1966 ± 0.021
4.893 K | 0.2248 ± 0.024
5.109 K | 0.2491 ± 0.026
5.336 K | 0.3026 ± 0.032
5.572 K | 0.3324 ± 0.035
5.823 K | 0.382 ± 0.041
6.077 K | 0.452 ± 0.048
6.345 K | 0.5096 ± 0.054
6.625 K | 0.5803 ± 0.062
6.92 K | 0.6878 ± 0.073
7.225 K | 0.7916 ± 0.084
7.545 K | 0.8991 ± 0.095
7.878 K | 1.031 ± 0.11
8.227 K | 1.197 ± 0.13
8.596 K | 1.338 ± 0.14
8.976 K | 1.541 ± 0.16
9.373 K | 1.763 ± 0.19
9.789 K | 1.997 ± 0.21
10.24 K | 2.278 ± 0.24
10.71 K | 2.579 ± 0.27
11.18 K | 2.902 ± 0.31
11.68 K | 3.262 ± 0.35
12.2 K | 3.647 ± 0.39
12.74 K | 4.074 ± 0.43
13.3 K | 4.535 ± 0.48
13.89 K | 5.046 ± 0.54
14.5 K | 5.598 ± 0.59
15.14 K | 6.188 ± 0.33
15.64 K | 6.658 ± 0.36
17.1 K | 8.085 ± 0.43
18.69 K | 9.716 ± 0.52
20.41 K | 11.56 ± 0.62
22.32 K | 13.61 ± 0.73
24.4 K | 15.91 ± 0.85
26.66 K | 18.4 ± 0.98
29.13 K | 20.97 ± 1.1
31.84 K | 23.77 ± 1.3
34.8 K | 26.64 ± 1.4
38.03 K | 29.6 ± 1.6
41.56 K | 32.79 ± 1.8
45.42 K | 35.88 ± 1.9
49.63 K | 39.11 ± 2.1
54.24 K | 42.18 ± 2.3
59.28 K | 45.06 ± 2.4
64.78 K | 47.92 ± 2.6
70.79 K | 50.65 ± 2.7
77.36 K | 53.75 ± 2.9
84.51 K | 57.18 ± 3.1
92.38 K | 61.03 ± 3.3
100.95 K | 64.26 ± 3.4
110.98 K | 67.64 ± 3.6
121.09 K | 71.22 ± 3.8
131.21 K | 75.19 ± 4
141.28 K | 78.86 ± 4.2
151.34 K | 82.29 ± 4.4
161.49 K | 85.76 ± 4.6
171.59 K | 90.18 ± 4.8
181.67 K | 95.02 ± 5.1
191.74 K | 98.7 ± 5.3
201.82 K | 102.27 ± 5.5
211.92 K | 106.37 ± 5.7
222 K | 112.07 ± 6
232.09 K | 117.31 ± 6.3
242.17 K | 119.6 ± 6.4
252.25 K | 124.22 ± 6.6
262.35 K | 128.72 ± 6.9
272.46 K | 133 ± 7.1
282.54 K | 137.8 ± 7.4
292.59 K | 141.72 ± 7.6
302.66 K | 146.37 ± 7.8
